One series concerns the target T1, CRTH2 (Homo sapiens, UniProt Q9Y5Y4).
T1 construct: expressed in transfected cells; host or cells: K562 cells (membrane fraction)
T1 sequence (Q9Y5Y4 1-395): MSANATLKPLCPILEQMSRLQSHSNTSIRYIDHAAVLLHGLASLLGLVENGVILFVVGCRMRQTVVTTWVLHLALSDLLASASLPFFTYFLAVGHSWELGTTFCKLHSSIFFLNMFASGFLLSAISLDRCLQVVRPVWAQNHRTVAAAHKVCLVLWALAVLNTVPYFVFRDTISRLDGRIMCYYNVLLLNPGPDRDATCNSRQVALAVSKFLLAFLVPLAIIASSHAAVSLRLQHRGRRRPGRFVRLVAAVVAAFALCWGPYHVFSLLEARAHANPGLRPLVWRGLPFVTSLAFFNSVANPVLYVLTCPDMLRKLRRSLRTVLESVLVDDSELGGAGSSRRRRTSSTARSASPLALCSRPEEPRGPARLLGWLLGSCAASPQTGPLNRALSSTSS
Put plainly: Binding activity to CRTH2 ([3H]PGD2 binding assay). Conditions: membrane fraction of CRTH2-transfected K562 cells, read-out: CRTH2 inhibitory activity IC50. The method, then:
Experiment 1 Binding Activity to CRTH2
The membrane fraction prepared with CRTH2-transfected K562 cells was used for a binding assay. To a binding-reaction solution (50 mM Tris/HCl, pH 7.4, 10 mM MgCl2) the membrane fraction (0.06 mg) and 3 nM [^3H]PGD2 (172 Ci/mmol) were added, and the mixture was reacted at room temperature for 60 min. After the reaction, the mixture was filtered through a glass fiber filter paper and washed several times with cooled physiological saline, then the radioactivity retained on the filter paper was measured. The specific-binding ratio was calculated by subtracting the non-specific binding ratio which is the radioactivity similarly measured in the presence of 10 μM PGD2 from the total binding.

One may read the IC50 as the midpoint of a concentration-inhibition curve. What is called melting point is the temperature of the solid-liquid transition.

With `O=C(O)Cn1cc(CCN(Cc2cccs2)S(=O)(=O)c2ccc(F)cc2)c2ccccc21` [Ia-65], the IC50 on CRTH2 was 0.027 µM.
For `O=C(O)Cn1cc(CCN(Cc2ccc([N+](=O)[O-])cc2)S(=O)(=O)c2ccc(F)cc2)c2ccccc21` [Ia-63], the IC50 on CRTH2 turned out to be 0.054 µM.
Still for that read-out and setting: the same measure for `O=C(O)Cn1cc(CCNS(=O)(=O)c2ccc(F)cc2)c2cc(Cl)ccc21` [Ia-32]: 0.018 µM.
`COc1ccc(S(=O)(=O)N(C)c2ccc3c(c2)c2c(n3CC(=O)O)CCCCC2)cc1` [Ig-14] showed a melting point of 144 to 150 °C. Besides, the IC50 at CRTH2 is 0.0083 µM.
For `CN(C1CCc2c(c3ccccc3n2CC(=O)O)C1)S(=O)(=O)c1ccsc1` (stereo not shown) [Ib-30] the same measures were 175 to 180 °C and 0.0053 µM.
`CN(c1ccc2c(c1)c1c(n2CC(=O)O)CCCCC1)S(=O)(=O)c1ccc(O)cc1` [Ig-16] gave a melting point of 186 to 189 °C. Further, the IC50 on CRTH2 worked out at 0.0036 µM.
Regarding `CN(c1ccc2c(c1)c1c(n2CC(=O)O)CCSC1)S(=O)(=O)c1ccc(F)cc1` [Ig-3], the melting point is 214 to 217 °C. For the same compound, on CRTH2, the IC50 amounted to 0.0097 µM.
For `O=C(O)Cn1cc(C2=CCCN(S(=O)(=O)c3ccc(F)cc3)C2)c2ccccc21` [Ic-2] the same measures were 142 to 143 °C and 0.021 µM.
For the compound `CN(CCc1cn(CC(=O)O)c2ccc(F)cc12)S(=O)(=O)c1ccc(F)cc1` [Ia-45], the half-maximal inhibitory concentration (IC50) on CRTH2 worked out at 0.019 µM.
For the compound `CC1CCc2c(c3cc(N(Cc4ccccc4)S(=O)(=O)c4ccc(F)cc4)ccc3n2CC(=O)O)C1` (stereo not shown) [Ih-6], the melting point was 176 to 178 °C. Further, on CRTH2, the IC50 worked out at 0.034 µM.
For `O=C(O)Cn1c2ccccc2c2cc(NS(=O)(=O)c3ccc(F)cc3)ccc21` [Ie-2] the same measures were 139 to 141 °C and 0.039 µM.
As to `O=C(O)Cn1cc(C2CCC(N(Cc3ccccc3)S(=O)(=O)c3ccc(F)cc3)C2)c2ccccc21` (stereo not shown) [Ij-3], at CRTH2, the IC50 amounted to 0.053 µM.
On the same count and under the same terms, the same measure for `Cc1c(CCN(C)S(=O)(=O)c2ccc(F)cc2)c2ccccc2n1CC(=O)O` [Ia-41]: 0.034 µM; for `CN(C1CCc2c(c3ccccc3n2CC(=O)O)C1)S(=O)(=O)c1cccs1` (single isomer, unassigned; (+)) [(+)-Ib-29]: 0.0049 µM; for `O=C(O)Cn1c2c(c3ccccc31)CC(NS(=O)(=O)c1cccs1)CC2` (single isomer, unassigned; (+)) [(+)-Ib-20]: 0.0079 µM.
`CC1CCc2c(c3cc(N(C)S(=O)(=O)c4ccc(F)cc4)ccc3n2CC(=O)O)C1` (stereo not shown) [Ih-5]: the melting point lay in the range of 100 to 101 °C. For the same compound, on CRTH2, the IC50 is 0.023 µM.
As for `Cc1c(C(C)(C)CNS(=O)(=O)c2ccc(F)cc2)c2ccccc2n1CC(=O)O` [If-1], the IC50 at CRTH2 is 0.019 µM.
As for `O=C(O)Cn1cc(C2CCN(S(=O)(=O)c3ccc(F)cc3)C2)c2ccccc21` (stereo not shown) [Ic-14], the melting point is 155 to 156 °C. The IC50 on CRTH2 is 0.0055 µM.
For `O=C(O)Cn1cc(C(CNS(=O)(=O)c2ccc(F)cc2)c2ccccc2)c2ccccc21` (stereo not shown) [If-9] the same measures were 117 to 120 °C and 0.012 µM.
Turning to `Cc1c(CCN(Cc2ccccc2)S(=O)(=O)c2ccc(F)cc2)c2ccccc2n1CC(=O)O` [Ia-55], the IC50 on CRTH2 was 0.042 µM.
`O=C(O)Cn1c2ccccc2c2cc(N(Cc3ccccc3)S(=O)(=O)c3ccc(F)cc3)ccc21` [Ie-8]: the melting point lay within 212 to 213 °C. Further, the IC50 at CRTH2 was found to be 0.026 µM.
`CN(C1Cc2c(n(CC(=O)O)c3ccccc23)C1)S(=O)(=O)c1ccc(F)cc1` (stereo not shown) [Ib-6]: the IC50 at CRTH2 came to 0.055 µM.
On the same count and under the same terms, the same measure for `Cc1ccc(S(=O)(=O)NC2CCc3c(c4ccccc4n3CC(=O)O)C2)cc1` (single isomer, unassigned; (+)) [(+)-Ib-18]: 0.013 µM; for `O=C(O)Cn1cc(CCN(Cc2ccccc2)S(=O)(=O)c2ccc(F)cc2)c2cc(F)ccc21` [Ia-59]: 0.023 µM.
Take `Cc1c(C)n(CC(=O)O)c2ccc(N(C)S(=O)(=O)c3ccc(F)cc3)cc12` [Ik-1]: the melting point is 165 to 179 °C. Moreover, the IC50 at CRTH2 stood at 0.048 µM.
The matching figures for `Cc1c(C(C)C)c2cc(NS(=O)(=O)c3ccc(F)cc3)ccc2n1CC(=O)O` [Ik-4]: 165 to 171 °C and 0.047 µM.
`CN(C1CCC(c2cn(CC(=O)O)c3ccccc23)C1)S(=O)(=O)c1ccc(F)cc1` (stereo not shown) [Ij-2]: the IC50 at CRTH2 came out at 0.053 µM.
As for `CN(CCc1cn(CC(=O)O)c2ccc(Cl)cc12)S(=O)(=O)c1ccc(F)cc1` [Ia-44], the IC50 on CRTH2 was 0.023 µM.
`O=C(O)Cn1c2c(c3cc(NS(=O)(=O)c4ccc(F)cc4)ccc31)CCCCCC2` [Ig-18]: the melting point was 193 to 197 °C. On CRTH2, the IC50 worked out at 0.019 µM.
Regarding `Cc1ccccc1CN(CCc1cn(CC(=O)O)c2ccccc12)S(=O)(=O)c1ccc(F)cc1` [Ia-61], the IC50 on CRTH2 worked out at 0.045 µM.
`COc1ccc(CN(CCc2cn(CC(=O)O)c3ccccc23)S(=O)(=O)c2ccc(F)cc2)cc1` [Ia-62] displayed a melting point of 108 to 110 °C. Moreover, the half-inhibitory concentration (IC50) on CRTH2 came out at 0.049 µM.
`O=C(O)Cn1cc(CCNS(=O)(=O)c2ccc(-c3ccc(F)cc3)cc2)c2ccccc21` [Ia-15]: the IC50 on CRTH2 came to 0.037 µM.
Same read-out and setting: the same measure for `C=CCN(CCc1cn(CC(=O)O)c2ccccc12)S(=O)(=O)c1ccc(F)cc1` [Ia-47]: 0.051 µM.
`CN(c1ccc2c(c1)c1ccccc1n2CC(=O)O)S(=O)(=O)c1ccc(F)cc1` [Ie-5]: the melting point fell in the range of 188 to 191 °C. For the same compound, the IC50 on CRTH2 was determined as 0.018 µM.
On to `Cc1ccc(S(=O)(=O)N(C)C2CCc3c(c4ccccc4n3CC(=O)O)C2)cc1` (single isomer, unassigned; (+)) [(+)-Ib-27], for which, on CRTH2, the IC50 was determined as 0.0062 µM.
On the same count and under the same terms, in the case of `CS(=O)(=O)NC(=O)Cn1cc(CCN(Cc2ccccc2)S(=O)(=O)c2ccc(F)cc2)c2ccccc21` [Ia-52] it was 0.024 µM; in that of `COc1ccc2c(c1)c(CCN(Cc1ccccc1)S(=O)(=O)c1ccc(F)cc1)cn2CC(=O)O` [Ia-57], 0.057 µM.
Compound `O=C(O)Cn1c2c(c3cc(NS(=O)(=O)c4ccc(F)cc4)ccc31)CCCCC2` [Ig-11] had a melting point of 209 to 211 °C. The IC50 on CRTH2 was 0.01 µM.
In turn, `CCc1c(C)n(CC(=O)O)c2ccc(NS(=O)(=O)c3ccc(F)cc3)cc12` [Ik-3] registered a melting point of 172 to 178 °C. For the same compound, at CRTH2, the IC50 came to 0.051 µM.
With `O=C(O)Cn1cc(CCN(Cc2ccccc2)S(=O)(=O)c2ccc(F)cc2)c2cc(Cl)ccc21` [Ia-58], the IC50 on CRTH2 was 0.033 µM.
The compound `CCc1c(C)n(CC(=O)O)c2ccc(N(C)S(=O)(=O)c3ccc(F)cc3)cc12` [Ik-5] displayed a melting point of 161 to 167 °C. At CRTH2, the IC50 was determined as 0.019 µM.
As to `O=C(O)Cn1cc(CCCN(Cc2ccccc2)S(=O)(=O)c2ccc(F)cc2)c2ccccc21` [Ia-85], at CRTH2, the IC50 worked out at 0.08 µM.
Compound `O=C(O)Cn1c2c(c3cc(N(Cc4ccccc4)S(=O)(=O)c4ccc(F)cc4)ccc31)CCCC2` [Ih-3] gave a melting point of 198 to 202 °C. The IC50 on CRTH2 came out at 0.033 µM.
In the case of `CCN(c1ccc2c(c1)c1c(n2CC(=O)O)CCCCC1)S(=O)(=O)c1ccc(F)cc1` [Ig-15], the half-maximal inhibitory concentration (IC50) at CRTH2 came to 0.0075 µM.
Still for that read-out and setting: in the case of `O=C(O)Cn1c2c(c3ccccc31)CC(NS(=O)(=O)c1ccsc1)CC2` (stereo not shown) [Ib-21] it was 0.012 µM; in that of `O=C(O)Cn1cc(C2CCC(NS(=O)(=O)c3ccc(F)cc3)C2)c2ccccc21` (stereo not shown) [Ij-1], 0.026 µM; in that of `CN(CCc1cn(CC(=O)O)c2ccccc12)S(=O)(=O)c1ccc(F)cc1` [Ia-39], 0.045 µM.
Same read-out and setting: in the case of `O=C(O)Cn1c2c(c3ccccc31)CC(NS(=O)(=O)c1ccc(F)cc1)CC2` (single isomer, unassigned; (+)) [(+)-Ib-16] it was 0.0059 µM; in that of `CC(C)N(CCc1cn(CC(=O)O)c2ccccc12)S(=O)(=O)c1ccc(F)cc1` [Ia-48], 0.057 µM.
Still for that read-out and setting: the same measure for `Cc1c(C(C)CNS(=O)(=O)c2ccc(F)cc2)c2ccccc2n1CC(=O)O` (stereo not shown) [If-4]: 0.016 µM.
Consider `CN(c1ccc2c(c1)c1c(n2CC(=O)O)CCCC1=O)S(=O)(=O)c1ccc(F)cc1` [Ig-4], for which the melting point was 218 to 220 °C. Further, at CRTH2, the concentration for half-maximal inhibition (IC50) came out at 0.0078 µM.
Take `Cc1cc2cc(N(C)S(=O)(=O)c3ccc(F)cc3)ccc2n1CC(=O)O` [Ik-2]: the melting point was 206 to 208 °C (dec.). For the same compound, the IC50 on CRTH2 amounted to 0.086 µM.
For the compound `Cc1c(CCNS(=O)(=O)c2ccc(F)cc2)c2ccccc2n1CC(=O)O` [Ia-20], the IC50 on CRTH2 stood at 0.022 µM.
On to `O=C(O)Cn1cc(CCN(CCc2ccccc2)S(=O)(=O)c2ccc(F)cc2)c2ccccc21` [Ia-66], for which, at CRTH2, the concentration for half-maximal inhibition (IC50) was 0.037 µM.

The values above are taken from patent publication US7534897B2 (Shionogi & Co., Ltd., priority 2002, dated 2009).
